Like-named read-outs stand apart in the source and are kept apart here.
Key:
[1] = tested on: sebaceous glands in ears of the male Syrian hamster; conditions: cited from earlier work
[2] = tested on: human sebocytes (sebaceous cells); experiment: inhibition of human sebocyte proliferation in vitro; assay type: cell-based; conditions: for IC50: read-out: ED50 (amount of compound necessary to inhibit the proliferation of the sebaceous cells by 50% as compared to a control)
Description: Sebaceous cells were isolated from adult human sebaceous glands as in J. Invest. Dermatol. 96:341-348 (1991) and cultured on a layer of growth-arrested 3T3 mouse fibroblasts.
The cells were cultured in Iscove's medium containing 10% fetal calf serum and 4 μg/ml dexamethasone.
Cells were plated in medium without 1α-fluoro-25-hydroxy-16-ene-23-yne-cholecalciferol. 24-48 hours after the initial plating, the cultures were given fresh medium containing the compound of the invention. Every 48 hours, the cultures were given fresh medium containing the compound of the invention. On the day of harvesting, the cultures were rinsed with a 0.03% EDTA in PBS, to remove only the 3T3 fibroblasts. The remaining sebocyyte colonies were incubated in 0.05% trypsin/0.03% EDTA to create a single cell suspension of sebocytes. The cells were diluted, mixed vigorously to maintain a single cell suspension, and counted in a hemocytometer.
The compounds tested were handled in the following manner. Stock solutions were made up as 10^-2 M solutions in degassed 100% ethanol and stored at -20° C. in the dark. Solutions were never used after storage of more than one month. During experimental use the solutions, which were aliquoted, were thawed once and used by diluting directly into complete medium to the appropriate concentration, at 10^-6, 10^-7, 10^-8 M and 10^-9. The compounds tested were
The results are summarized in table 1 as the amount of compound necessary to inhibit the proliferation of the sebaceous cells by 50% as compared to a control (ED50). The control was a culture treated with diluent only.

[3] = tested on: hamster ear sebaceous gland; experiment: hamster ear sebaceous gland model, oral study; assay type: in vivo, male Golden Syrian hamsters; conditions: 4 weeks
Description: The purpose of the test was to evaluate the effect of the inventive compound on the sebaceous glands of the hamster ear after oral administration of the compound. 200 μl of the compound of the invention dissolved in Tween 20/water/ethanol […] administered daily (5 days per week) by garage to male Golden Syrian hamsters. The animals were sacrificed at 4 weeks and the ears were processed for histological evaluation. One ear was fixed with 10% buffered formalin, processed for paraffin embedding, sectioned, and stained with hematoxyline and eosin (H&E). The area of the sebaceous glands was measured on histologically prepared cross-sections of the ear by image analysis using a Leitz TAS Plus system. Data is given as the average areas of 48 sebaceous glands per dose.

[4] = tested on: hamster ear sebaceous gland; experiment: hamster ear sebaceous gland model, topical study; assay type: in vivo; conditions: 4 weeks, vs control
Description: The compound was evaluated for topical anti-acne activity in the hamster ear sebaceous gland model. For these studies, the compound was dissolved in acetone. Fifty (50) μl of the drug-containing solution was applied daily (5 days per week) to the dorsal side of the right ear of the hamster. Control hamsters received 50 μl of acetone. The animals were sacrificed after 4 weeks. The ears were removed and processed for histological evaluation. The ventral surface was separated from the rest of the ear. A 2 mm punch was removed 5 mm from the tip of the ear and stained in 0.1% Sudan Black B dissolved in 100% propylene glycol overnight. After destaining, the areas of the sebaceous glands were determined from the cross sections by image analysis using a Donsato Image Analysis System. The data was expressed as a percentage change from control animals for 80-120 sebaceous glands per dose.

| SMILES | size of sebaceous glands in ears (result in words) [1] | IC50 ([2]; Homo sapiens) | % Change in Hamster Ear Sebaceous Gland Size Cross Section Analysis ([3]; 0.05 μg/kg) | % Change in Hamster Ear Sebaceous Gland Size Cross Section Analysis ([3]; 0.5 μg/kg) | % Change in Hamster Ear Sebaceous Gland Size Cross Section Analysis ([3]; 5.0 μg/kg) | % Change in Hamster Ear Sebaceous Gland Size Cross Section Analysis ([3]; 50.0 μg/kg) | IC50 ([2]; human sebocytes in vitro, control treated with diluent only) | human sebocyte proliferation in vitro (result in words) ([2]; in vitro) | Change in Hamster Ear Sebaceous Gland Size Cross Section Analysis ([4]; 0.001 μg/animal, ns = not statistically significant from controls) | Change in Hamster Ear Sebaceous Gland Size Cross Section Analysis ([4]; 0.01 μg/animal, ns = not statistically significant from controls) | Change in Hamster Ear Sebaceous Gland Size Cross Section Analysis ([4]; 0.1 μg/animal, ns = not statistically significant from controls) | Change in Hamster Ear Sebaceous Gland Size Cross Section Analysis ([4]; 1.0 μg/animal, not marked ns) |
| --- | --- | --- | --- | --- | --- | --- | --- | --- | --- | --- | --- | --- |
| C=C1/C(=C\C=C2/CCC[C@]3(C)[C@@H]([C@H](C)CCCC(C)(C)O)CC[C@@H]23)C[C@@H](O)C[C@@H]1O [1,25-dihydroxycholecalciferol, reference compound] | reducing the size of sebaceous glands in ears of the male Syrian hamster | 50 nM |  |  |  |  |  |  |  |  |  |  |
| C=C1/C(=C\C=C2/CCC[C@]3(C)C([C@H](C)CC#CC(C)(C)O)=CC[C@@H]23)C[C@@H](O)C[C@@H]1F [1α-fluoro-25-hydroxy-16-ene-23-yne-cholecalciferol] |  |  | -28% | -28% | -34% | -35% | 1 nM | inhibits human sebocyte proliferation in vitro | -3% | -18% | -28% | -40% |

From patent publication US5384314A, “1α-fluoro-25-hydroxy-16-ene-23-yne-cholecalciferol” (Hoffmann-La Roche Inc., priority 1994, dated 1995)
